Results taken from patent US4732989A, “Substituted alkyl imidazole derivatives” (G. D. Searle & Co., priority 1986, dated 1988).
Converted amounts (≈) assume the structure as drawn. Where a name gives a salt, the structure may show the parent alone.

Assays:
B. Fragilis NCTC 10581 = experiment: MIC/MBC anti-anaerobic screen, strain A; assay type: cell-based, Bacteroides fragilis; conditions: 37° C.; for MIC: Bacteroides fragilis, NCTC10581, 48 h, read-out: Minimum Inhibitory Concentration (MIC)
Description: (§1) The screening panel utilized in this Example consisted of 5 strains of Bacteroides fragilis. All assays were carried out in 96 well microtitre plates. If an isolate was obtained from either a culture collection or clinical source, the isolate was immediately inoculated into Wilkins-Chalgren broth (Oxoid) and incubated at 37° C. in an anaerobic chamber in an atmosphere of 85% nitrogen, 10% carbon dioxide, and 5% hydrogen for 48 hours. At the end of this time, the viable count was about 10^12 organisms/ml broth. A 1 ml aliquot of each culture was placed in an ampoule and quick frozen in an acetone-dry-ice mixture and stored in liquid nitrogen. When an inoculum was utilized in an assay, one of the ampoules was thawed and diluted with fresh broth to yield a suspension having a count of 5×10^5 organisms/ml. 100 ul of the suspension was inoculated into each well of the microtitre plate. 2 mg of the test compound was dissolved on 0.2 ml of a suitable solvent such as dimethylsulphoxide, polyethylene glycol 200 or methanol. […] After addition of the test solution, the final inoculum level is 10^5 cells/ml. The plates were incubated for 48 hours at 37° C. in the anaerobic chamber. The Minimum Inhibitory Concentration (MIC) was read visually. The MIC is defined as the lowest concentration at which there is no detectable growth. The Minimum Bactericidal Concentration (MBC) was determined by taking a 50 ul aliquot from each well and placing it in fresh medium.

B. Fragilis WS-1 = experiment: MIC/MBC anti-anaerobic screen, strain E; assay type: cell-based; conditions: Bacteroides fragilis, 48 h; for MIC: 37° C., anaerobic, read-out: Minimum Inhibitory Concentration (MIC)
Description: as §1

B. Fragilis ATCC 11295 = experiment: MIC/MBC anti-anaerobic screen, strain D; assay type: cell-based; conditions: Bacteroides fragilis, ATCC11295, 48 h, 37° C., read-out: Minimum Inhibitory Concentration (MIC)
Description: as §1

B. Fragilis NCTC 9344 = experiment: MIC/MBC anti-anaerobic screen, strain C; assay type: cell-based; conditions: Bacteroides fragilis, NCTC9344, 48 h, 37° C., read-out: Minimum Inhibitory Concentration (MIC)
Description: as §1

B. Fragilis NCTC 9343 = experiment: MIC/MBC anti-anaerobic screen, strain B; assay type: cell-based; conditions: Bacteroides fragilis, NCTC9343, 48 h, 37° C., read-out: Minimum Inhibitory Concentration (MIC)
Description: as §1

Row | Compound | MIC (B. Fragilis NCTC 10581) | MIC (B. Fragilis WS-1) | MIC (B. Fragilis ATCC 11295) | MIC (B. Fragilis NCTC 9344) | other results
1 | Clc1ccccc1N1CCN=C1C(Cn1ccnc1)c1ccccc1 (centres unmarked) [Example 1, 1-(2-Chlorophenyl)-4,5-dihydro-2[2-(imidazol-1-yl)-1-phenylethyl)imidazole] | 3.1 µg/mL (≈ 8.84 µM) | – | – | – | –
2 | CSc1nccn1CC(C1=NCCN1c1ccc(Cl)cc1Cl)c1ccccc1 (centres unmarked) [Example 22, 1-(2,4-Dichlorophenyl)-4,5-dihydro-2-[1-phenyl-2-(2-thiomethylimidazol-1-yl)ethyl]imidazole dihydrochloride] | – | 3.1 µg/mL | 3.1 µg/mL | 3.1 µg/mL | –
3 | Clc1ccc(CN2CCN=C2C(Cn2cccn2)c2ccccc2)c(Cl)c1 (centres unmarked) [Example 16, 1-(2,4-Dichlorophenylmethyl)-4,5-dihydro-2-[1-phenyl-2-(pyrazol-1-yl)ethyl]imidazole dihydrochloride] | 2.5 µg/mL | – | – | 3.1 µg/mL | –
4 | CCCCCCCCCCN1CCN=C1C(Cn1ccnc1)c1ccccc1.Cl.Cl (centres unmarked) [Example 26, 1-n-Decyl-4,5-dihydro-2-[2-(imidazol-1-yl)-1-phenylethyl]imidazole dihydrochloride] | – | 3.1 µg/mL | 3.1 µg/mL | 3.1 µg/mL | –
5 | Clc1ccc(CN2CCN=C2C(Cn2ccnc2)c2ccccc2)c(Cl)c1 (centres unmarked) [Example 15, 1-(2,4-Dichlorophenylmethyl)-4,5-dihydro-2-[2-(imidazol-1-yl)-1-phenylethyl]imidazole] | 3.1 µg/mL (≈ 7.76 µM) | – | 3.1 µg/mL (≈ 7.76 µM) | 3.1 µg/mL (≈ 7.76 µM) | MIC (B. Fragilis NCTC 9343): 3.1 µg/mL (≈ 7.76 µM)
6 | CC1=NCCN1CC(C1=NCCN1c1ccc(Cl)cc1Cl)c1ccccc1 (centres unmarked) [Example 23, 1-(2,4-Dichlorophenyl)-4,5-dihydro-2-[2-(4,5-dihydro-2-methylimidazol-1-yl)-1-phenylethyl]imidazole dihydrochloride] | – | 0.8 µg/mL | – | – | –
7 | Brc1ccc(N2CCN=C2C(Cn2ccnc2)c2ccccc2)c(Br)c1 (centres unmarked) [Example 2, 1-(2,4-Dibromophenyl)-4,5-dihydro-2-[2-(imidazol-1-yl)-1-phenylethyl]imidazole dihydrochloride] | 0.8 µg/mL | 0.8 µg/mL | – | – | MIC (B. Fragilis NCTC 9343): 3.1 µg/mL
8 | Clc1ccc(N2CCN=C2C(Cn2ccnc2)c2ccccc2)c(Cl)c1 (centres unmarked) [Example 3, 1-(2,4-Dichlorophenyl)-4,5-dihydro-2-[2-(imidazol-1-yl)-1-phenylethyl]imidazole hydrochloride] | 0.8 µg/mL | – | 0.8 µg/mL | 0.8 µg/mL | MBC (B. Fragilis WS-1; 99.9% reduction in viable count, read-out: Minimum Bactericidal Concentration (MBC)): 3.1 µg/mL
9 | Cc1nccn1CC(C1=NCCN1c1ccc(Cl)cc1Cl)c1ccccc1 (centres unmarked) [Example 21, 1-(2,4-Dichlorophenyl)-4,5-dihydro-2-[2-(2-methylimidazol-1-yl)-1-phenylethyl]imidazole dihydrochloride] | – | 0.8 µg/mL | 3.1 µg/mL | 0.8 µg/mL | –
10 | CCCCCCCCN1CCN=C1C(Cn1ccnc1)c1ccccc1 (centres unmarked) [Example 19, 4,5-Dihydro-2-[2-(imidazol-1-yl)-1-phenylethyl]-1-n-octylimidazole dihydrochloride] | – | – | – | – | MIC (B. Fragilis NCTC 9343): 3.1 µg/mL
11 | Cc1ncc([N+](=O)[O-])n1CCO [Metronidazole, reference compound] | – | – | – | – | Minimum Inhibitory Concentration (MIC) (B. Fragilis NCTC 10581; 48 hours): 0.8 µg/mL
